Laboratory results reported in patent publication US20160287646A1, “MACROALGAE COMPOSITIONS, PROCESSES FOR PREPARATION THEREOF, AND USES IN SPORTS NUTRITION” (OmniActive Health Technologies (Canada) Limited, priority 2015, published 2016).

Experiments:
C2C12 cells [1] = test: Mitochondrial mass (NAO probe fluorescence) in differentiated C2C12 cells; format: cell-based, mouse; details: fluorescent intensity relative to untreated control
Procedure: (§1) Mouse skeletal myoblasts C2C12 cells were used as a cell model to assess mitochondrial function and IGF-1 expression. Cells were cultured as undifferentiated myoblasts in high-serum growth media DMEM (Dulbecco's Modified Eagle Medium), supplemented with 10% FBS (Fetal bovine serum) and 1% penicillin/streptomycin. Cells were grown to full confluency at 37° C. in a humidified incubator with 5% CO2.
The effect of treatment with macroalgae composition on mitochondrial mass was assessed by measuring changes in fluorescent intensity in differentiated C2C12 cells. The nonylacridine orange (NAO) probe binds to cardiolipin in all mitochondria, regardless of their energetic state, providing a measure of mitochondrial mass and an indication of mitochondrial biogenesis. C2C12 cells were seeded in 96-well culture plates at a density of 2×10^4 cells/mL, induced to differentiate, and pre-treated with or without select macroalgae composition and controls. […] Probe fluorescence was measured (excitation 380 nm, emission 645 nm) using a fluorescence plate reader. Fluorescent intensity relative to untreated control was then calculated. To standardize probe fluorescence to protein content of the cells, total protein content (in μg) was assessed by bicinchoninic acid (BCA) using bovine serum albumin as standard.

C2C12 cells [2] = test: Mitochondrial oxygen consumption (MitoXpress probe) in differentiated C2C12 cells; format: cell-based, mouse; details: macroalgae composition 100 ug/ml
Procedure: as §1
Extracellular oxygen consumption in differentiated C2C12 cells was measured by assessing phosphorescence of a porphyrin-based, water soluble, oxygen sensitive probe (MitoXpress®-Xtra-HS, Luxcel Biosciences). Probe fluorescence is quenched by molecular oxygen (O2), resulting in lower probe signal. As cellular respiration reduces the concentration of O2, probe signal increases. The rate of this increase is related to the rate of cellular oxygen consumption. C2C12 cells were seeded in 96-well culture plates at a density of 2×10^4 cells/mL, induced to differentiate, and incubated with MitoXpress probe ([…] the presence or absence of macroalgae composition (100 ug/ml). High sensitivity mineral oil was added (100 μL/well) to increase assay sensitivity by minimizing interference from ambient O2. Probe fluorescence was measured (excitation 380 nm, emission 645 nm) using a fluorescence plate reader.

H295R cells = test: Cortisol production immunoassay in H295R cells; format: cell-based, human; details: 24 h incubation
Procedure: It is a human adrenal cell line that presents a steroid secretion pattern and regulation similar to primary cultures of adrenal cells.
Cells were then incubated in the presence or absence of macroalgae composition for 24 h before assessing cortisol production.
To evaluate the effect of treatment with macroalgae composition on cortisol concentrations in H295R cells, the DetectX® (Arbor Assays) immunoassay was utilized. A cortisol standard was provided to generate a standard curve for the assay and all samples were read off the standard curve. Standards or samples were pipetted into a clear microtiter plate coated with an antibody. A cortisol-peroxidase conjugate was added to the standards and samples in the wells. The binding reaction was initiated by the addition of a monoclonal antibody to cortisol to each well. After 1 hour incubation, the plate was washed and substrate was added. The substrate reacted with the bound cortisol-peroxidase conjugate. After a short incubation, the reaction was stopped and the intensity of the generated color was detected in a microtiter plate reader capable of measuring 450 nm wavelength. The concentration of cortisol in the samples was then calculated.

C2C12 cells [3] = test: ATP production colorimetric assay in C2C12 myotubes; format: cell-based, mouse; details: extracts 100 ug/mL, caffeine 500 uM, creatine 1 uM, control 99.99
Procedure: C2C12 cells (ATCC® CRL-1772) were seeded in 24- or 96-well culture plates as undifferentiated myoblasts and grown to 100% confluency in ATCC-formulated Dulbecco's Modified Eagle's Medium (DMEM) supplemented with 10% heat-inactivated fetal bovine serum (FBS). […] Differentiation medium consisted of ATCC-formulated DMEM supplemented with 2% heat-inactivated horse serum and was changed daily during the differentiation process. Cell culture conditions were maintained at 37° C. in a humidified atmosphere of 5% CO2/95% air. After 5 days of differentiation, cells were incubated in the presence or absence of macroalgae composition (with control). […] The effect of select macroalgae compositions were assessed using the following assays:
To evaluate the effect of macroalgae composition on ATP levels, colorimetric assay kit (Sigma-Aldrich, St. Louis, Mo.) was used, which is an enzyme-linked approach that involves the conversion of ATP in the test sample to ADP via the action of glycerol kinase which catalyses the transfer of the phosphate group to glycerol. The reaction was monitored by use of colorimetric product whose concentration varies proportional to the amount of ATP present. […] After 30 minutes, the absorbance at 570 nm will be measured using a microplate reader, and ATP concentrations will be extrapolated from a standard curve.

C2C12 cells [4] = test: Glycogen synthesis colorimetric assay in differentiated C2C12 cells; format: cell-based, mouse; details: for Glycogen Content - glucose + insulin: 30 mM glucose + 100 nM insulin, compared to non-treated samples (glucose only 100.0); for Glycogen Content - glucose only: 30 mM glucose, compared to non-treated samples (100.0)
Procedure: (§2) C2C12 cells (ATCC® CRL-1772) were seeded in 24- or 96-well culture plates as undifferentiated myoblasts and grown to 100% confluency in ATCC-formulated Dulbecco's Modified Eagle's Medium (DMEM) supplemented with 10% heat-inactivated fetal bovine serum (FBS). […] Differentiation medium consisted of ATCC-formulated DMEM supplemented with 2% heat-inactivated horse serum and was changed daily during the differentiation process. Cell culture conditions were maintained at 37° C. in a humidified atmosphere of 5% CO2/95% air. After 5 days of differentiation, cells were incubated in the presence or absence of macroalgae composition (with control). Cells were treated with macroalgae compositions and also control samples to check effect on said biomarkers. The compositions and control samples used are mentioned in the respective table, showing results of the test. The effect of select macroalgae compositions were assessed using the following assays:
(§3) Glucose uptake in C2C12 cells was determined by bioluminescent assay (Promega), based on the detection of 2-deoxyglucose-6-phosphate (2DG6P). When […] to cells, it is transported across the membrane and rapidly phosphorylated. However, further modification is not possible, resulting in accumulation within the cell. Addition of a 2DG6P detection reagent, leading to the generation of NADPH from 2DG6P, luciferin from NADPH, and light from luciferin, allows for detection of a bioluminescent signal. Overall, the luminescent signal is proportional to the concentration of 2DG6P, and thus the rate of glucose uptake. Glycogen synthesis was determined in cell culture lysates from differentiated C2C12 cells using a colorimetric assay kit from BioVision Inc. This involves the addition of glucoamylase to the samples that hydrolyzes glycogen to glucose; the glucose is then oxidized to form an intermediate that reduces OxiRed, forming a colored product with strong absorbance at 570 nm.

C2C12 cells [5] = test: Glucose uptake bioluminescent assay (2DG6P) in C2C12 cells; format: cell-based, mouse; details: for Glucose Uptake - glucose + insulin: 25 mM glucose + 1 uM insulin, compared to non-treated samples (glucose only 100.0)
Procedure: as §2, §3

PGC-1α = test: PGC-1alpha ELISA in differentiated C2C12 cells; format: cell-based, mouse; details: overnight treatment, extracts 100 ug/mL, caffeine 500 uM, resveratrol 100 uM, control 100.01
Procedure: as §2, with “assays: Concentrations of PGC-1α in differentiated C2C12 cells as a result of treatment with macroalgae composition were determined by ELISA (MyBiosource). Following overnight treatment, cell lysates were collected and centrifuged to remove cellular debris. […] The amount of PGC-1α captured by the anti-PGC-1α antibody was determined using a biotinylated-IgG antibody/HRP-streptavidin detection system.” for “assays:”

[6] = test system: insulin-like growth factor-1 (IGF-1); test: IGF-1 ELISA in differentiated C2C12 cells; format: cell-based, mouse; details: cell culture supernatants
Procedure: as §1
To evaluate the effect of treatment with macroalgae composition on insulin-like growth factor-1 (IGF-1) concentrations in differentiated C2C12 cells, the mouse IGF-1 enzyme-linked immunosorbent assay (ELISA) kit (Sigma) was utilized. The kit provides a quantitative measurement of mouse IGF-1 in cell culture supernatants by employing an antibody specific coated 96-well plate. Standards and samples were added to the coated plate and any IGF-1 present in the sample bound to the immobilized antibody. After washing away any unbound antibody, HRP-conjugated streptavidin was added to the wells. The wells were washed again, followed by addition of a colorimetric TMB reagent. Color developed in proportion to the amount of bound IGF-1. Addition of a stop solution changed the color from blue to yellow, and the color intensity was read at A450 with a microplate reader. Blank-corrected unknown sample protein concentrations were then extrapolated from a known standard curve.

[7] = test system: mTOR (the mammalian target of rapamycin); test: BioPlex cell signaling assay, relative phosphorylation of mTOR in C2C12 cells; format: cell-based, mouse; details: differentiated C2C12 cells pre-treated 2 hours; ratio of fluorescence of phospho-protein to total protein
Procedure: (§4) The effects of macroalgae composition on biomarkers of sport nutrition based on protein synthesis platform were evaluated, wherein the compositions were tested with an initial MTT assay (MIT is a name of dye 3-(4,5-dimethylthiazol-2-yl)-2,5-diphenyltetrazolium bromide) to determine cytotoxicity and establish dose range for testing.
(§5) Test inputs chosen for the protein synthesis assay platform were assessed using BioPlex (BioRad) cell signaling assays, based on the principle of the sandwich ELISA. Capture antibodies directed against the desired biomarker were covalently coupled to magnetic beads, which reacted with the sample containing the biomarker of interest. After a series of wash steps to remove any unbound protein, a biotinylated detection antibody was added to create a “sandwich” complex. The final detection complex was formed with the addition of a streptavidin-phycoerythrin (SA-PE) conjugate, which serves as a fluorescent indicator. […] The beads were then re-suspended in assay buffer and read on the BioPlex MAGPIX system. […]
(§6) Phospho-PKB/PKB, Phospho-mTOR/mTOR, Phospho-p70S6k/p70S6k, their effects were more pronounced than creatine or whey protein. In Table 3 below, Phospho-PKB/PKB, Phospho-mTOR/mTOR, and Phospho-p70S6k/p70S6k are expressed as a ratio of the fluorescence of the phospho-protein divided by the fluorescence of the total protein.

Akt = test: BioPlex cell signaling assay, relative phosphorylation of Akt (PKB) in C2C12 cells; format: cell-based, mouse; details: differentiated C2C12 cells pre-treated 2 hours; ratio of fluorescence of phospho-protein to total protein
Procedure: as §4, §5, §6

p70S6k = test: BioPlex cell signaling assay, relative phosphorylation of p70S6k in C2C12 cells; format: cell-based, mouse; details: differentiated C2C12 cells pre-treated 2 hours; ratio of fluorescence of phospho-protein to total protein
Procedure: as §4, §5, §6

`Cn1c(=O)c2c(ncn2C)n(C)c1=O` [Caffeine] was tested, and the “Mitochondrial Mass” value (C2C12 cells [1]) was 146, the “Mitochondrial Oxygen consumption” value (C2C12 cells [2]) was 157 and the Cortisol (H295R cells) was 65. The “ATP production, Relative to Control” value (C2C12 cells [3]) was 225.83, the “Glycogen Content - glucose + insulin” value (C2C12 cells [4]) was 164.7% and the “Glycogen Content - glucose only” value (C2C12 cells [4]) was 115.3%. For the same molecule, the “Glucose Uptake - glucose + insulin” value (C2C12 cells [5]) was 198.7%, the “PGC1-alpha production, Relative to Control” value (PGC-1α) was 192.96 and the IGF-1 [6] was 130.
With `CN(CC(=O)O)C(=N)N` [Creatine] the “ATP production, Relative to Control” value (C2C12 cells [3]) was 233.17, the Phospho-mTOR/mTOR [7] was 192 and the Phospho-PKB/PKB (Akt) was 191. For the same molecule, the Phospho-p70S6k/p70S6k (p70S6k) was 162.
For `CC(C)C[C@H](N)C(=O)O` [Leucine], the “Mitochondrial Mass” value (C2C12 cells [1]) was 157, the “Mitochondrial Oxygen consumption” value (C2C12 cells [2]) was 144 and the Cortisol (H295R cells) was 65.3. For the same molecule, the “Glycogen Content - glucose + insulin” value (C2C12 cells [4]) was 158.2%, the “Glycogen Content - glucose only” value (C2C12 cells [4]) was 111.1% and the “Glucose Uptake - glucose + insulin” value (C2C12 cells [5]) was 203.7%. It also gave an IGF-1 [6] of 127.
In the case of `Oc1ccc(C=Cc2cc(O)cc(O)c2)cc1` [Resveratrol], the “Glycogen Content - glucose + insulin” value (C2C12 cells [4]) is reported as 223.9%, the “Glycogen Content - glucose only” value (C2C12 cells [4]) is reported as 142.9% and the “Glucose Uptake - glucose + insulin” value (C2C12 cells [5]) is reported as 291.0%. For the same molecule, the “Glucose (G) Uptake - glucose only” value (C2C12 cells [5]; 25 mM glucose, compared to non-treated samples (100.0)) was 132.4% and the “PGC1-alpha production, Relative to Control” value (PGC-1α) was 220.96.
In the case of “Insulin: control in protein synthesis assay; co-stimulus in glucose uptake and glycogen assays”, the Phospho-mTOR/mTOR [7] is reported as 311, the “Glycogen Content - glucose + insulin” value (C2C12 cells [4]) is reported as 153.6% and the “Glucose Uptake - glucose + insulin” value (C2C12 cells [5]) is reported as 189.5%. For the same molecule, the Phospho-PKB/PKB (Akt) was 315 and the Phospho-p70S6k/p70S6k (p70S6k) was 241.
